The values that follow come from PubChem BioAssay AID192 (DTP/NCI, 2004).

Inconclusive results and toxic doses are left out.

This assay has as its system BDF1 mice, B16 melanoma ip, median survival T/C. Put plainly: NCI In Vivo Anticancer Drug Screen. Data for tumor model B16 Melanoma (intraperitoneal) in B6D2F1 (BDF1) mice. The note with it: endpoint: median survival time, higher = longer survival. The gist of the method:
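Survival or tumor size is measured after treatment of tumor-bearing mice and normalised to the vehicle-treated control group.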

Where [1] appears, read: dose: 6.25 mg/kg/injection, schedule: Q01DX009 (ip), vehicle: saline with Tween-80.
The mark [2] stands for this setting: dose: 12.5 mg/kg/injection, schedule: Q01DX009 (ip), vehicle: saline with Tween-80.
Setting [3] is: dose: 25.0 mg/kg/injection, schedule: Q01DX009 (ip), vehicle: saline with Tween-80.
Where [4] appears, read: dose: 50.0 mg/kg/injection, schedule: Q01DX009 (ip), vehicle: saline with Tween-80.
The mark [5] stands for this setting: dose: 100.0 mg/kg/injection, schedule: Q01DX009 (ip), vehicle: saline with Tween-80.
[6] abbreviates: dose: 0.05 mg/kg/injection, schedule: Q01DX009 (ip), vehicle: saline.
Where [7] appears, read: dose: 0.1 mg/kg/injection, schedule: Q01DX009 (ip), vehicle: saline.
Setting [8] is: dose: 0.2 mg/kg/injection, schedule: Q01DX009 (ip), vehicle: saline.
Where [9] appears, read: dose: 200.0 mg/kg/injection, schedule: Q01DX009 (ip), vehicle: saline with Tween-80.
Where [10] appears, read: dose: 25.0 mg/kg/injection, schedule: Q01DX009 (ip), vehicle: saline.
The mark [11] stands for this setting: dose: 100.0 mg/kg/injection, schedule: Q01DX009 (ip), vehicle: Klucel (hydroxypropylcellulose) (HPC).

For the compound `CC(=O)Nc1cccc2c1CCCC2`, the T/C is 113 % of control (dose: 100.0 mg/kg/injection, schedule: Q04DX003 (ip), vehicle: gum acacia); 97 % of control (dose: 200.0 mg/kg/injection, schedule: Q04DX003 (ip), vehicle: gum acacia); 95 % of control (dose: 400.0 mg/kg/injection, schedule: Q04DX003 (ip), vehicle: gum acacia).
Regarding `COc1ccccc1N=NC(C#N)C(N)=O` (stereo not given), the T/C by setting is: under setting [1], 91 % of control; under setting [2], 94 % of control; under setting [3], 87 % of control; under setting [4], 112 % of control.
In the case of `Cc1cc(=O)n2c3c(cc(C#N)cc13)OC2`, the T/C (dose: 100.0 mg/kg/injection, schedule: Q04DX003 (ip), vehicle: Klucel (hydroxypropylcellulose) (HPC)) is 92 % of control; the T/C (dose: 200.0 mg/kg/injection, schedule: Q04DX003 (ip), vehicle: Klucel (hydroxypropylcellulose) (HPC)) was 95 % of control; the T/C (dose: 400.0 mg/kg/injection, schedule: Q04DX003 (ip), vehicle: Klucel (hydroxypropylcellulose) (HPC)) was 92 % of control.
For `Nc1ccn(C2CC(O)C(CO)O2)c(=O)n1` (stereo not given), the T/C is, setting by setting: (dose: 9.38 mg/kg/injection, schedule: Q01DX009 (ip), vehicle: water) 105 % of control; (dose: 18.75 mg/kg/injection, schedule: Q01DX009 (ip), vehicle: water) 101 % of control; (dose: 37.5 mg/kg/injection, schedule: Q01DX009 (ip), vehicle: water) 100 % of control; (dose: 75.0 mg/kg/injection, schedule: Q01DX009 (ip), vehicle: water) 99 % of control; (dose: 150.0 mg/kg/injection, schedule: Q01DX009 (ip), vehicle: water) 109 % of control.
`CC(=O)NC1CCCCC1`: the T/C is 100 % of control (dose: 33.0 mg/kg/injection, schedule: Q04DX003 (ip), vehicle: saline with Tween-80); 93 % of control (dose: 75.0 mg/kg/injection, schedule: Q04DX003 (ip), vehicle: saline with Tween-80); 150 % of control (dose: 100.0 mg/kg/injection, schedule: Q04DX003 (ip), vehicle: saline with Tween-80).
Turning to `COC(=O)C1=C(C)NC(=O)NC1c1ccc(N(CCCl)CCCl)c(OC)c1` (stereo not given), the T/C (dose: 1.56 mg/kg/injection, schedule: Q01DX009 (ip), vehicle: Klucel (hydroxypropylcellulose) (HPC)) was 154 % of control; the T/C (dose: 3.12 mg/kg/injection, schedule: Q01DX009 (ip), vehicle: Klucel (hydroxypropylcellulose) (HPC)) is 178 % of control; the T/C (dose: 3.13 mg/kg/injection, schedule: Q01DX009 (ip), vehicle: saline with Tween-80) was 176 % of control; the T/C under setting [1] is 189 % of control.
For the compound `CC(C(=O)O)C(=O)O.[NH-]CC[NH-].[Pt+2]`, the T/C is 150 % of control (dose: 3.12 mg/kg/injection, schedule: Q01DX009 (ip), vehicle: water); 162 % of control (dose: 6.25 mg/kg/injection, schedule: Q01DX009 (ip), vehicle: water); 179 % of control (dose: 12.5 mg/kg/injection, schedule: Q01DX009 (ip), vehicle: water); 211 % of control (dose: 25.0 mg/kg/injection, schedule: Q01DX009 (ip), vehicle: water).
For the compound `O=C(NC(Cc1ccccc1)C(=O)O)c1ccccc1` (stereo not given), the T/C by setting is: under setting [4], 90 % of control; under setting [5], 96 % of control.
With `CCN1/C(=C/C=C/C=C/c2sc3ccccc3[n+]2CC)Sc2ccccc21`, the T/C (dose: 0.01 mg/kg/injection, schedule: Q01DX009 (ip), vehicle: saline) was 100 % of control; the T/C (dose: 0.02 mg/kg/injection, schedule: Q01DX009 (ip), vehicle: saline) is 98 % of control; the T/C under setting [6] is 93 % of control; the T/C under setting [7] was 98 % of control; the T/C under setting [8] is 100 % of control.
On to `CCOC(=O)CCN1CC(C)OC(C)C1` (stereo not given), for which the T/C (dose: 100.0 mg/kg/injection, schedule: Q01DX009 (ip), vehicle: saline) was 118 % of control; the T/C (dose: 200.0 mg/kg/injection, schedule: Q01DX009 (ip), vehicle: saline) is 115 % of control; the T/C (dose: 400.0 mg/kg/injection, schedule: Q01DX009 (ip), vehicle: saline) is 118 % of control.
Regarding `O=C(NC(C(=O)O)c1ccccc1)OCc1ccccc1` (stereo not given), the T/C is 97 % of control under setting [4], 98 % of control under setting [5] and 98 % of control under setting [9].
Regarding `CN(C)N=Nc1ccc(C(=O)O)cc1`, the T/C by setting is: under setting [10], 113 % of control; (dose: 50.0 mg/kg/injection, schedule: Q01DX009 (ip), vehicle: saline) 119 % of control.
For `CCOC(=O)NNC(N)=S`, the T/C under setting [11] was 100 % of control; the T/C (dose: 200.0 mg/kg/injection, schedule: Q01DX009 (ip), vehicle: Klucel (hydroxypropylcellulose) (HPC)) was 93 % of control; the T/C (dose: 400.0 mg/kg/injection, schedule: Q01DX009 (ip), vehicle: Klucel (hydroxypropylcellulose) (HPC)) was 93 % of control.
`c1ccc([Te][Te]c2ccccc2)cc1`: the T/C by setting is: (dose: 3.0 mg/kg/injection, schedule: Q01DX009 (ip), vehicle: saline with Tween-80) 123 % of control; (dose: 6.0 mg/kg/injection, schedule: Q01DX009 (ip), vehicle: saline with Tween-80) 123 % of control.
Regarding `CC(CN=Cc1ccccc1O)N=Cc1ccccc1O` (stereo not given), the T/C by setting is: (dose: 12.5 mg/kg/injection, schedule: Q01DX009 (ip), vehicle: Klucel (hydroxypropylcellulose) (HPC)) 91 % of control; (dose: 25.0 mg/kg/injection, schedule: Q01DX009 (ip), vehicle: Klucel (hydroxypropylcellulose) (HPC)) 88 % of control; (dose: 50.0 mg/kg/injection, schedule: Q01DX009 (ip), vehicle: Klucel (hydroxypropylcellulose) (HPC)) 87 % of control; under setting [11], 89 % of control.
Consider `Cc1c(CNc2ccc(C(=O)NC(CC(=O)O)CC(=O)O)cc2)ccc2nc(N)nc(N)c12`, for which the T/C is, setting by setting: under setting [6], 111 % of control; under setting [7], 111 % of control; (dose: 0.12 mg/kg/injection, schedule: Q01DX009 (ip), vehicle: saline with Tween-80) 102 % of control; under setting [8], 116 % of control; (dose: 0.25 mg/kg/injection, schedule: Q01DX009 (ip), vehicle: saline with Tween-80) 91 % of control; (dose: 0.37 mg/kg/injection, schedule: Q01DX009 (ip), vehicle: saline) 100 % of control.
Consider `Cc1cc[n+](C)c2ccccc12`, for which the T/C is 95 % of control (dose: 9.37 mg/kg/injection, schedule: Q01DX009 (ip), vehicle: saline); 92 % of control (dose: 18.75 mg/kg/injection, schedule: Q01DX009 (ip), vehicle: saline); 97 % of control (dose: 37.5 mg/kg/injection, schedule: Q01DX009 (ip), vehicle: saline).
Consider `FC(F)(F)c1ccc2c(c1)N(CCCN1CCN(CCOCCCl)CC1)c1ccccc1S2`, for which the T/C (dose: 0.39 mg/kg/injection, schedule: Q01DX009 (ip), vehicle: saline) was 123 % of control; the T/C (dose: 0.78 mg/kg/injection, schedule: Q01DX009 (ip), vehicle: saline) was 115 % of control; the T/C (dose: 1.56 mg/kg/injection, schedule: Q01DX009 (ip), vehicle: saline) was 110 % of control; the T/C (dose: 2.34 mg/kg/injection, schedule: Q04DX003 (ip), vehicle: saline) was 92 % of control; the T/C (dose: 4.68 mg/kg/injection, schedule: Q04DX003 (ip), vehicle: saline) was 86 % of control.
As for `COc1ccc(-c2ccc(OC)c(OC)c2OC)c(N)c1`, the T/C was 107 % of control under setting [5]; 107 % of control under setting [9]; 94 % of control (dose: 400.0 mg/kg/injection, schedule: Q01DX009 (ip), vehicle: saline with Tween-80).
For the compound `CC(=O)OCC1OC(n2cnc3c(=S)nc(N)[nH]c32)C(OC(C)=O)C1OC(C)=O` (stereo not given), the T/C reads like this: (dose: 6.25 mg/kg/injection, schedule: Q01DX009 (ip), vehicle: saline) 118 % of control; (dose: 12.5 mg/kg/injection, schedule: Q01DX009 (ip), vehicle: saline) 105 % of control; under setting [10], 101 % of control.
For the compound `ClC1CC[N-]CC1.ClC1CC[N-]CC1.O=C(O)CC(=O)O.[Pt+2]`, the T/C under setting [2] was 96 % of control; the T/C under setting [3] was 95 % of control; the T/C under setting [4] is 96 % of control; the T/C under setting [5] was 95 % of control; the T/C under setting [9] is 104 % of control.
